Experimental data as given in PMC12261321, “Inhibitors of the Bacterioferritin Ferredoxin Complex Dysregulate Iron Homeostasis and Kill and Biofilm-Embedded Cells” (ACS Infectious Diseases, 2025).

Experiments:
[1] = tested on: P. aeruginosa PAO1 biofilm; experiment: Pellicle biofilm assay, % survival of biofilm cells; type: cell-based; details: for % Survival Biofilm, P. aeruginosa PAO1: 24 h; for biofilm cell death: 27 h old pellicle biofilms treated 24 h
Protocol: We studied the susceptibility of mature biofilms to treatment with analogues of 4-aminoisoindoline-1,3-dione using biofilms cultured at the […] interface (pellicles) using methodology reported previously. To determine the susceptibility of pellicle biofilms to inhibitors of the Pa Bfr–Bfd complex, we cultured 27 h old biofilms in PI media supplemented with 20 μM Fe, as presented in Experimental Methods. The mature biofilms were transferred onto glass coverslips by touching the pellicle with the surface of the coverslips. The coverslip-adhered biofilms were then exposed to treatment solution consisting of AB media supplemented with 20 μM Fe, 1.5% DMSO, 0.025% HPMC, and 4-aminoisoindoline-1,3-dione derivative or commercial antibiotic for 24 h. The biofilms were then harvested and washed, and the cells were dispersed into sterile PBS by vortexing in the presence of zirconia beads prior to plating and enumerating viable cells (CFU/mL) to calculate % cell survival.
Biofilm Assays. Pellicle biofilms formed by EYF P-expressing P. aeruginosa PAO1 wer e carried ou t as repo rted previously,13 with some modifications. Starter cultures were diluted to OD600 = 0.001 in 4 mL PI media supplement ed with 20 µM Fe , trans ferred to petri dishes (35 x 10 mm) and incubated statically for 27 h at 30 °C.
The pellicles were transferred onto circular microscope glass coverslips (12 mm diameter) by gently allowing the surface of a coverslip to contact the pellicle. Th e biofilm- attached coverslip was washed (3 x) by floating it on top of PBS with the biofilm exposed to the liquid and then placed on top of 1.5 mL AB challenge media in a well of a 12-well microplate, with the biofilm exposed to the media at 30 °C for 24 h. AB challenge media is AB minimal media supplemented with 1.5% DMSO, 0.025% HPMC, 20 μ M Fe, and 4-aminoisoindoline-1,3- dione […]
The 4-aminoisoindoline-1,3- dione derivative solutions were prep ared from powder as 10 mM st ock solutions in DMSO and then diluted in AB challenge media to the appropriate concentrations. Following the 24 h challenge, planktonic and loosely attached cells were washed 3 times by floating the coverslip-attached biofilms with the biofilm facing down into a petri d ish (60 x 15 mm) containing 15 mL PBS, and incubating for 5 min. The biofilm was removed from the coversli p and the cells releas ed f rom the extra cel lular matrix by placing th e cov erslip-attach ed biofi lm in a 50 mL conical tub e containing a 2-mL sup ension of zirconia beads (0.1 mm diam eter, BiosSpec Produ cts), 10 mL PBS, 1 mM MgSO4, 20 µg/mL alginate lyase and 40 µg/mL DNAse. The mixture was incubated for three min at room temperature, and then vigorously vortexed for four min. Following sedimentation of the zirconia beads, a 100 μ L aliquot was utilized for serial dilution in PBS and plating on PIA plates for viable cell enumeration (CFU/mL). […]

P. aeruginosa PAO1 = experiment: Compound intracellular accumulation in P. aeruginosa PAO1; type: cell-based; details: cells treated with 30 µM compound
Protocol: Determination of Compound Intracellular Accumulation. These experiments were carri ed out as reported previously,16 with modifications. Starter cultures o f P. aeruginosa PAO1 or A. baumannii 5075 were centrifuged for 10 min at 3148 x g and 4 °C, resuspended in 5 mL of fresh LB, diluted to OD 600 = 0.03 in fresh LB media (250 mL), and then cultured at 35 °C and 220 rpm for 4 h. Th e resultant cul ture was diluted to OD600 = 0.4 in 250 mL LB and centrifuged at 4 °C and 3470 x g for 10 min. The cell pellet was resuspended in 20 mL of PBS and transfer red to a 50 mL conical tube, where it was centrifuged at 4 °C and 3148 x g for 20 min. The cell pellet was resuspended in 15 mL of PBS supplemented with 0.05% (w/v) HPMC and the suspension was divided equally into two new conical tubes. One of th e tubes was treated with 150 µL of DMSO (control), while the second tube was treated with 150 µL of compound in DMSO solution to produce a compound final concentration of 30 µM or 15 µM. The resultant mixtures were incubated at 37 °C and 220 rpm for 15 min, placed on ice for 1 min, and then centrifuged at 3148 x g rpm and 4 °C for 10 min. The cell pellet was resuspended in 7.5 mL of ice -cold PBS and vortexed (10 s, five t imes). 200 µL of the cell suspension was used to plate and enumerate viable cells, and 800 µL of the suspension was lay ered onto 700 µL of chilled silicon oil contained in 1.5 mL Eppendo rf tubes and then centrifuged at 4 °C ( 900 x g) for 10 min, then again at 16,200 x g for 5 min to allow pass ag e of the cell suspension through the silicon oil layer. The aqueous and oil layers were removed, and the cell pellet was washed twice in PBS (800 μ L), each time transferring the cell suspension to a new Eppendorf tube and then centrifuging at 16,200 x g. The cell pellet was lysed in 800 µL methanol by vortexing followed by 10 min incubationat room temperatur e. The lysate suspension was pelleted, the supernatant was transferred to a new Eppendorf tube and then placed into a vacuum concentrator (Eppendorf 5301 Vacufuge) to evaporate the methanol (4 h). The dried […]
cell lysate was resuspend ed in 600 µL of DMSO and centrifuged at 16,200 x g rpm for 5 min at room temperature.
The clarified supernatant was titrated with small volumes of 250 µM compound stock, measuring the fluorescen ce after the addition of each aliquot with the aid of a Cary Eclipse Fluorescence Spectrometer (Agilent). The compound concentration was determined utilizing the standard addition method,17 and compound accumulation is reported as nmol compound/1012 CFU/mL. […]
Eclipse) fluorescen ce sp ectrophotometer. The flu orescen ce intensity of th e treated sample (FI)Tr and that of the untreated control (FI)Un was normalized to the corresponding OD600 and the ratio (FI/OD600)Tr / (F I/ OD600)Un is […]
The determination for each of the compounds was carri ed out in 5 biological replicates.
Determination of Siderophores Secreted by A. baumannii . The chromo azurol S (CAS) solution was prepared as previously reported18 with some modifications. The blue dye solution (0.6 g/L CAS ( ACROS Organics), 100 μM FeCl3·6H2O, and 0.73 g/L hexadecyltrimethylammonium bromide (HDTMA, ACROS Organics) was autoclaved and stored in the dark. The MM9-PIPES buffer solution (3 g/L KH2PO4, 5 g/L NaCl, 10 g/L NH4C l, 32.24 g/L piperazine -1,4-bis-2- ethanesulfonic acid (PIPES , Sigma Aldrich), pH 6.75) was sterilized using a 0.22 µm syringe filter (VWR). Prior to every experimen t, blue dye solution (0.5 mL) was mixed with 4.5 mL of MM9-PIPES solution. An overnight culture of A. baumannii 5075 was diluted to OD600 = 0.0001 with modified M63 media (no citric acid) supplemented with 4 μ M Fe and transferred to a 96-well plate, wh ere it was cul tured for 20

[2] = biofilm challenged with 50 µM compound
[3] = biofilm challenged with 30 µM compound
[4] = biofilm challenged with 20 µM compound

Compound: O=C1NC(=O)c2c(NCc3ccccc3O)cccc21 [Analog 11, 4-((2-Hydroxybenzyl)amino)isoindoline-1,3-dione]
- % Survival Biofilm, P. aeruginosa PAO1 [1, 2]: 87 ± 6%

Compound: O=C1NC(=O)c2c(NCc3ccc(Br)cc3O)cccc21 [EB-5-61]
- Intracell. Accum, P. aeruginosa PAO1 (P. aeruginosa PAO1): 197 ± 17 nmol/1012 CFU
- % Survival Biofilm, P. aeruginosa PAO1 [1, 2]: 8 ± 2%

Compound: Cc1ccc(CNc2cccc3c2C(=O)NC3=O)c(O)c1 [EB-5-69]
- Intracell. Accum, P. aeruginosa PAO1 (P. aeruginosa PAO1): 52 ± 2 nmol/1012 CFU
- % Survival Biofilm, P. aeruginosa PAO1 [1, 2]: 64 ± 1%

Compound: Cc1cccc(CNc2cccc3c2C(=O)NC3=O)c1O [EB-5-70]
- % Survival Biofilm, P. aeruginosa PAO1 [1, 2]: 105 ± 2%

Compound: O=C1NC(=O)c2c(NCc3c(O)cccc3F)cccc21 [EB-5-71]
- % Survival Biofilm, P. aeruginosa PAO1 [1, 2]: 52 ± 10%

Compound: O=C1NC(=O)c2c(NCc3c(O)cccc3Br)cccc21 [EB-5-72]
- % Survival Biofilm, P. aeruginosa PAO1 [1, 2]: 45 ± 0.4%

Compound: O=C1NC(=O)c2c(NCc3cccc(Br)c3O)cccc21 [EB-5-73]
- Intracell. Accum, P. aeruginosa PAO1 (P. aeruginosa PAO1): 34 ± 9 nmol/1012 CFU
- % Survival Biofilm, P. aeruginosa PAO1 [1, 3]: 78 ± 14%

Compound: O=C1NC(=O)c2c(NCc3cccc(F)c3O)cccc21 [EB-5-80]
- Intracell. Accum, P. aeruginosa PAO1 (P. aeruginosa PAO1): 11 ± 3 nmol/1012 CFU
- % Survival Biofilm, P. aeruginosa PAO1 [1, 2]: 106 ± 23%

Compound: O=C1NC(=O)c2c(NCc3cc(F)ccc3O)cccc21 [JAG-5-7]
- Intracell. Accum, P. aeruginosa PAO1 (P. aeruginosa PAO1): 28 ± 10 nmol/1012 CFU
- % Survival Biofilm, P. aeruginosa PAO1 [1, 2]: 85 ± 16%

Compound: O=C1NC(=O)c2c(NCc3cc(Cl)ccc3O)cccc21 [KM-5-25, 4-((5-Chloro-2-hydroxybenzyl)amino)isoindoline-1,3-dione]
- Intracell. Accum, P. aeruginosa PAO1 (P. aeruginosa PAO1): 270 ± 48 nmol/1012 CFU
- biofilm cell death [1]: concentration-dependent biofilm cell death
- % Survival Biofilm, P. aeruginosa PAO1 [1, 2]: 17 ± 6%

Compound: O=C1NC(=O)c2c(NCc3c(O)cccc3Cl)cccc21 [KM-5-29]
- Intracell. Accum, P. aeruginosa PAO1 (P. aeruginosa PAO1): 351 ± 25 nmol/1012 CFU
- % Survival Biofilm, P. aeruginosa PAO1 [1, 2]: 50 ± 7%

Compound: O=C1NC(=O)c2c(NCc3cccc(Cl)c3O)cccc21 [KM-5-30]
- Intracell. Accum, P. aeruginosa PAO1 (P. aeruginosa PAO1): 42 ± 1 nmol/1012 CFU
- % Survival Biofilm, P. aeruginosa PAO1 [1, 2]: 72 ± 11%

Compound: O=C1NC(=O)c2c(NCc3cc(Br)ccc3O)cccc21 [KM-5-35, 4-((5-Bromo-2-hydroxybenzyl)amino)isoindoline-1,3-dione]
- Intracell. Accum, P. aeruginosa PAO1 (P. aeruginosa PAO1): 360 ± 22 nmol/1012 CFU
- biofilm cell death [1]: concentration-dependent biofilm cell death
- % Survival Biofilm, P. aeruginosa PAO1 [1, 2]: 10 ± 4%

Compound: O=C1NC(=O)c2c(NCc3cc(Cl)ccc3O)ccc(Br)c21 [SB-16-51]
- % Survival Biofilm, P. aeruginosa PAO1 [1, 4]: 53 ± 9%

Compound: CC(C)(C)c1ccc(O)c(CNc2cccc3c2C(=O)NC3=O)c1 [SB-16-53]
- % Survival Biofilm, P. aeruginosa PAO1 [1, 3]: 48 ± 10%

Compound: O=C1NC(=O)c2c(NCc3cc(F)ccc3O)ccc(Br)c21 [SB-16-67]
- Intracell. Accum, P. aeruginosa PAO1 (P. aeruginosa PAO1): 187 ± 59 nmol/1012 CFU

Compound: Cc1cc(Br)cc(CNc2cccc3c2C(=O)NC3=O)c1O [SB-16-106]
- % Survival Biofilm, P. aeruginosa PAO1 [1, 3]: 42 ± 9%

Compound: O=C1NC(=O)c2c(NCc3cc(Br)c(F)cc3O)cccc21 [SB-16-112]
- % Survival Biofilm, P. aeruginosa PAO1 [1, 3]: 15 ± 0.7%

Compound: O=C1NC(=O)c2c(NCc3cc(Br)cc(F)c3O)cccc21 [SB-16-118]
- Intracell. Accum, P. aeruginosa PAO1 (P. aeruginosa PAO1): 126 ± 40 nmol/1012 CFU
- % Survival Biofilm, P. aeruginosa PAO1 ([1]; biofilm challenged with 40 µM compound): 13 ± 2%

Compound: O=C1NC(=O)c2c(NCc3cc(Br)ccc3O)ccc(Cl)c21 [SB-16-124]
- % Survival Biofilm, P. aeruginosa PAO1 [1, 4]: Not active

Compound: O=C1NC(=O)c2c(NCc3cc(Br)cc(O)c3O)cccc21 [SB-16-136]
- % Survival Biofilm, P. aeruginosa PAO1 [1, 2]: 63 ± 2%

Compound: O=C1NC(=O)c2c(NCc3cc(Br)c(O)cc3O)cccc21 [SB-16-137]
- Intracell. Accum, P. aeruginosa PAO1 (P. aeruginosa PAO1): 33 ± 1 nmol/1012 CFU
- % Survival Biofilm, P. aeruginosa PAO1 [1, 2]: 78 ± 21%

Compound: Cc1cc(Cl)cc(CNc2cccc3c2C(=O)NC3=O)c1O [SB-16-156]
- % Survival Biofilm, P. aeruginosa PAO1 [1, 3]: 44 ± 18%

Compound: O=C1NC(=O)c2c(NCc3cc(Cl)c(O)cc3O)cccc21 [SB-16-160]
- % Survival Biofilm, P. aeruginosa PAO1 [1, 2]: Not active

Compound: O=C1NC(=O)c2c(NCc3cc(Cl)cc(O)c3O)cccc21 [SB-16-168]
- % Survival Biofilm, P. aeruginosa PAO1 [1, 2]: Not active

Compound: Cc1cc(CNc2cccc3c2C(=O)NC3=O)c(O)cc1Br [SB-16-183]
- % Survival Biofilm, P. aeruginosa PAO1 [1, 4]: 43 ± 3%

Compound: O=C1NC(=O)c2c(NCc3cc(Br)cc(O)c3O)ccc(Br)c21 [SB-16-250]
- % Survival Biofilm, P. aeruginosa PAO1 [1, 4]: Not active

Compound: O=C1NC(=O)c2c(NCc3ccc4c(c3)COC4)cccc21 [SB-17-80]
- % Survival Biofilm, P. aeruginosa PAO1 [1, 4]: Not active

Compound: O=C1NC(=O)c2c(NCc3cccc4c3CCN4)cccc21 [SB-17-140]
- % Survival Biofilm, P. aeruginosa PAO1 [1, 2]: Not active
